Experimental data from PubChem BioAssay AID1963982 (Molecular Pharmacology Branch, DTP, NCI, 2024).

Tested on: 313798-341-R-J2-PDC spheroids, viability
Experiment: Anticancer human tumor 313798-341-R-J2-PDC patient-derived cervical squamous cell carcinoma cell line growth inhibition [PI3K]
Conditions: spheroids with HUVEC and MSC; for IC50: curve of first compound; for viability, T/C: stronger effect = lower value
Outline: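 Viability of mixed-cell spheroids was determined after exposure to pairwise combinations, one partner being inavolisib, alpelisib, duvelisib or copanlisib. Highest tested concentration matched clinical Cmax where known and 10 microM where not, descending in half-log steps.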

[1] = second compound 0.0316 µM, first compound 0.0316 µM
[2] = second compound 0.0316 µM, first compound 0.1 µM
[3] = second compound 0.1 µM, first compound 0.0316 µM
[4] = second compound 0.1 µM, first compound 0.1 µM
[5] = second compound 0.316 µM, first compound 0.0316 µM
[6] = second compound 0.316 µM, first compound 0.1 µM
[7] = second compound 1 µM, first compound 0.0316 µM
[8] = second compound 1 µM, first compound 0.1 µM
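Also: spheroids exposed to compounds for seven days.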
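For viability, T/C in this document: 100% = DMSO vehicle control viability.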

Compound: CC(=O)c1c(C)c2cnc(Nc3ccc(N4CCNCC4)cn3)nc2n(C2CCCC2)c1=O + CC(Nc1ncnc2nc[nH]c12)c1cc2cccc(Cl)c2c(=O)n1-c1ccccc1
- IC50 (second compound 0.0316 µM): > 0.1 µM
- IC50 (second compound 0.1 µM): > 0.1 µM
- IC50 (second compound 0.316 µM): > 0.1 µM
- IC50 (second compound 1 µM): > 0.1 µM
- IC50 (second compound 3.16 µM): > 0.1 µM
- IC50 (second compound 10 µM): > 0.1 µM
- viability, T/C (second compound 0.0316 µM, first compound 0.000316 µM): 100%
- viability, T/C (second compound 0.0316 µM, first compound 0.001 µM): 112%
- viability, T/C (second compound 0.0316 µM, first compound 0.00316 µM): 98.8%
- viability, T/C (second compound 0.0316 µM, first compound 0.01 µM): 102%
- viability, T/C [1]: 101%
- viability, T/C [2]: 106%
- viability, T/C (second compound 0.1 µM, first compound 0.000316 µM): 104%
- viability, T/C (second compound 0.1 µM, first compound 0.001 µM): 104%
- viability, T/C (second compound 0.1 µM, first compound 0.00316 µM): 108%
- viability, T/C (second compound 0.1 µM, first compound 0.01 µM): 109%
- viability, T/C [3]: 103%
- viability, T/C [4]: 97.4%
- viability, T/C (second compound 0.316 µM, first compound 0.000316 µM): 99.6%
- viability, T/C (second compound 0.316 µM, first compound 0.001 µM): 105%
- viability, T/C (second compound 0.316 µM, first compound 0.00316 µM): 91.1%
- viability, T/C (second compound 0.316 µM, first compound 0.01 µM): 110%
- viability, T/C [5]: 95.3%
- viability, T/C [6]: 104%
- viability, T/C (second compound 1 µM, first compound 0.000316 µM): 108%
- viability, T/C (second compound 1 µM, first compound 0.001 µM): 107%
- viability, T/C (second compound 1 µM, first compound 0.00316 µM): 94.1%
- viability, T/C (second compound 1 µM, first compound 0.01 µM): 106%
- viability, T/C [7]: 99.2%
- viability, T/C [8]: 106%
- viability, T/C (second compound 3.16 µM, first compound 0.000316 µM): 100%
- viability, T/C (second compound 3.16 µM, first compound 0.001 µM): 108%
- viability, T/C (second compound 3.16 µM, first compound 0.00316 µM): 104%
- viability, T/C (second compound 3.16 µM, first compound 0.01 µM): 97%
- viability, T/C (second compound 3.16 µM, first compound 0.0316 µM): 100%
- viability, T/C (second compound 3.16 µM, first compound 0.1 µM): 103%
- viability, T/C (second compound 10 µM, first compound 0.000316 µM): 93%
- viability, T/C (second compound 10 µM, first compound 0.001 µM): 94.8%
- viability, T/C (second compound 10 µM, first compound 0.00316 µM): 92.6%
- viability, T/C (second compound 10 µM, first compound 0.01 µM): 98.2%
- viability, T/C (second compound 10 µM, first compound 0.0316 µM): 92.3%
- viability, T/C (second compound 10 µM, first compound 0.1 µM): 87.5%

Compound: CC(Cn1ccc(-c2ccc(C#N)c(Cl)c2)n1)NC(=O)c1cc(C(C)O)[nH]n1 (centres undefined) + CC(Nc1ccc2c(c1)OCCn1cc(N3C(=O)OCC3C(F)F)nc1-2)C(N)=O
- IC50 (second compound 0.00316 µM): > 10 µM
- IC50 (second compound 0.01 µM): > 10 µM
- IC50 (second compound 0.0316 µM): > 10 µM
- IC50 (second compound 0.1 µM): > 10 µM
- IC50 (second compound 0.316 µM): > 10 µM
- IC50 (second compound 1 µM): 4.5 µM
- viability, T/C (second compound 0.00316 µM, first compound 0.0316 µM): 102%
- viability, T/C (second compound 0.00316 µM, first compound 0.1 µM): 107%
- viability, T/C (second compound 0.00316 µM, first compound 0.316 µM): 98.3%
- viability, T/C (second compound 0.00316 µM, first compound 1 µM): 101%
- viability, T/C (second compound 0.00316 µM, first compound 3.16 µM): 105%
- viability, T/C (second compound 0.00316 µM, first compound 10 µM): 99.8%
- viability, T/C (second compound 0.01 µM, first compound 0.0316 µM): 106%
- viability, T/C (second compound 0.01 µM, first compound 0.1 µM): 103%
- viability, T/C (second compound 0.01 µM, first compound 0.316 µM): 109%
- viability, T/C (second compound 0.01 µM, first compound 1 µM): 103%
- viability, T/C (second compound 0.01 µM, first compound 3.16 µM): 100%
- viability, T/C (second compound 0.01 µM, first compound 10 µM): 89.1%
- viability, T/C [1]: 122%
- viability, T/C [2]: 111%
- viability, T/C (second compound 0.0316 µM, first compound 0.316 µM): 106%
- viability, T/C (second compound 0.0316 µM, first compound 1 µM): 113%
- viability, T/C (second compound 0.0316 µM, first compound 3.16 µM): 96.7%
- viability, T/C (second compound 0.0316 µM, first compound 10 µM): 97.2%
- viability, T/C [3]: 109%
- viability, T/C [4]: 107%
- viability, T/C (second compound 0.1 µM, first compound 0.316 µM): 102%
- viability, T/C (second compound 0.1 µM, first compound 1 µM): 117%
- viability, T/C (second compound 0.1 µM, first compound 3.16 µM): 99.1%
- viability, T/C (second compound 0.1 µM, first compound 10 µM): 82.3%
- viability, T/C [5]: 86.7%
- viability, T/C [6]: 86.3%
- viability, T/C (second compound 0.316 µM, first compound 0.316 µM): 78.8%
- viability, T/C (second compound 0.316 µM, first compound 1 µM): 84.5%
- viability, T/C (second compound 0.316 µM, first compound 3.16 µM): 79.9%
- viability, T/C (second compound 0.316 µM, first compound 10 µM): 60.8%
- viability, T/C [7]: 64.8%
- viability, T/C [8]: 55.5%
- viability, T/C (second compound 1 µM, first compound 0.316 µM): 63.7%
- viability, T/C (second compound 1 µM, first compound 1 µM): 58.6%
- viability, T/C (second compound 1 µM, first compound 3.16 µM): 54.2%
- viability, T/C (second compound 1 µM, first compound 10 µM): 40.5%
